Results reported in the supplement of paper PMC11208160.

Assay: recombinant UMI read abundance after kanamycin selection (control-corrected) (log10(CPM+1)); higher = more efficient recombination; extreme values may be limits of the assay; sequences stand for … in AGTGCAGAGAAAATCGGCCAGTTTTCTCTGCCTGCAGTCCGCATGCCGTGGGACCCCTTGGGTTCTAACCTGTTGCCTAGATTTATGCAGCGGACTGCCTTTCTCCCAAAGTGATAAACCGG…AGGTTGGTTTCACT; site = the 11-nt donor
How it was run: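 In Escherichia coli, a pool of donor and donor-binding-loop pairs, each with a 12-nt UMI, was tested for the IS621 bridge recombinase. Plating was on IPTG (0.07 mM) plus kanamycin, or without selection, in two replicates. Recombinant UMIs were amplified by PCR across the donor–target junction and sequenced, and counts were reported as log10(CPM+1) after averaging and control-derived scaling.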
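Also: IS621 bridge recombinase in Escherichia coli cells against a fixed T5 target plasmid.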

TTAGCTGCATGGACCGGTTTTCCCGGTAATCCGTATTTGTG (site TTAGCTGCTCG)
recombinant UMI read abundance (log10): 0.0153

TTAGCTGCATGGACCGGTTTTCCCGGTAATCCGTATTTGTG (site TTAGCTGCTCT)
recombinant UMI read abundance (log10): 0.162

TTAGCTGCATGGACCGGTTTTCCCGGTAATCCGTATTTGTG (site TTAGCTGCTGA)
recombinant UMI read abundance (log10): 0.631

TTAGCTGCATGGACCGGTTTTCCCGGTAATCCGTATTTGTG (site TTAGCTGCTTA)
recombinant UMI read abundance (log10): 0.192

TTAGCTGCATGGACCGGTTTTCCCGGTAATCCGTATTTGTG (site TTAGCTTCTCA)
recombinant UMI read abundance (log10): 0.00647

TTAGCTGCATGGACCGGTTTTCCCGGTAATCCGTATTTGTG (site TTAGGTGCTCA)
recombinant UMI read abundance (log10): 0.0094

TTAGCTGCATGGACCGGTTTTCCCGGTAATCCGTATTTGTG (site TTAGTTGCTCA)
recombinant UMI read abundance (log10): 0.00547

TTAGCTGCATGGACCGGTTTTCCCGGTAATCCGTATTTGTG (site TTATCTGCTCA)
recombinant UMI read abundance (log10): 0.0225

TTAGCTGCATGGACCGGTTTTCCCGGTAATCCGTATTTGTG (site TTCGCTGCTCA)
recombinant UMI read abundance (log10): 0.00425

TTAGCTGCATGGACCGGTTTTCCCGGTAATCCGTATTTGTG (site TTGGCTGCTCA)
recombinant UMI read abundance (log10): 0.0755

TTAGCTGCATGGACCGGTTTTCCCGGTAATCCGTATTTGTG (site TTTGCTGCTCA)
recombinant UMI read abundance (log10): 0.00733

TTAGGTGCATGGACCGGTTTTCCCGGTAATCCGTATTTGGT (site TTAGGTGCTAC)
recombinant UMI read abundance (log10): 1.17

TTAGGTGCATGGACCGGTTTTCCCGGTAATCCGTATTTGTG (site TTAGATGCTCA)
recombinant UMI read abundance (log10): 0.787

TTAGGTGCATGGACCGGTTTTCCCGGTAATCCGTATTTGTG (site TTAGCTGCTCA)
recombinant UMI read abundance (log10): 0.0453

TTAGGTGCATGGACCGGTTTTCCCGGTAATCCGTATTTGTG (site TTAGGTGCTCA)
recombinant UMI read abundance (log10): 0.831

TTAGGTGCATGGACCGGTTTTCCCGGTAATCCGTATTTGTG (site TTAGTTGCTCA)
recombinant UMI read abundance (log10): 0.0384

TTAGTAACATGGACCGGTTTTCCCGGTAATCCGTATTTGAC (site CTAGTATCTGT)
recombinant UMI read abundance (log10): 1.07

TTAGTAACATGGACCGGTTTTCCCGGTAATCCGTATTTGAC (site TTAGTAACTGT)
recombinant UMI read abundance (log10): 2.16

TTAGTATCATGGACCGGTTTTCCCGGTAATCCGTATTTGCA (site ACAGTATCTTG)
recombinant UMI read abundance (log10): 1.99

TTAGTATCATGGACCGGTTTTCCCGGTAATCCGTATTTGCA (site TTAGTATCTTG)
recombinant UMI read abundance (log10): 1.42

TTAGTCTCATGGACCGGTTTTCCCGGTAATCCGTATTTGAT (site TTAGTCTCTAT)
recombinant UMI read abundance (log10): 2.82

TTAGTTACATGGACCGGTTTTCCCGGTAATCCGTATTTGCC (site TTAGTTACTGG)
recombinant UMI read abundance (log10): 2.18

TTATACTCATGGACCGGTTTTCCCGGTAATCCGTATTTGCA (site TAATACTCTTG)
recombinant UMI read abundance (log10): 1.93

TTATACTCATGGACCGGTTTTCCCGGTAATCCGTATTTGCA (site TCATACTCTTG)
recombinant UMI read abundance (log10): 1.9

TTATACTCATGGACCGGTTTTCCCGGTAATCCGTATTTGCA (site TGATACTCTTG)
recombinant UMI read abundance (log10): 2.05

TTATACTCATGGACCGGTTTTCCCGGTAATCCGTATTTGCA (site TTATACTCTTG)
recombinant UMI read abundance (log10): 2.72

TTATCATCATGGACCGGTTTTCCCGGTAATCCGTATTTGAG (site TTATCATCTCT)
recombinant UMI read abundance (log10): 0.385

TTATGACCATGGACCGGTTTTCCCGGTAATCCGTATTTGAC (site TTATGACCTGT)
recombinant UMI read abundance (log10): 0

TTATGCACATGGACCGGTTTTCCCGGTAATCCGTATTTGGC (site TTATGCACTGC)
recombinant UMI read abundance (log10): 1.93

TTATGTCCATGGACCGGTTTTCCCGGTAATCCGTATTTGTA (site TTATGTCCTTA)
recombinant UMI read abundance (log10): 0.134

TTATGTCCATGGACCGGTTTTCCCGGTAATCCGTATTTGTC (site TTATGTCCTGA)
recombinant UMI read abundance (log10): 0.363

TTCAAACCATGGACCGGTTTTCCCGGTAATCCGTATTTGCG (site TTCAAACCTCG)
recombinant UMI read abundance (log10): 0

TTCAAGACATGGACCGGTTTTCCCGGTAATCCGTATTTGCC (site TTCAAGACTGG)
recombinant UMI read abundance (log10): 0

TTCACCGCATGGACCGGTTTTCCCGGTAATCCGTATTTGCG (site TACACCGCTCG)
recombinant UMI read abundance (log10): 0.00969

TTCACCGCATGGACCGGTTTTCCCGGTAATCCGTATTTGCG (site TCCACCGCTCG)
recombinant UMI read abundance (log10): 0.017

TTCACCGCATGGACCGGTTTTCCCGGTAATCCGTATTTGCG (site TGCACCGCTCG)
recombinant UMI read abundance (log10): 0.0109

TTCACCGCATGGACCGGTTTTCCCGGTAATCCGTATTTGCG (site TTCACCGCTCG)
recombinant UMI read abundance (log10): 0.0246

TTCACCTCATGGACCGGTTTTCCCGGTAATCCGTATTTGGT (site TTCACCTCTAC)
recombinant UMI read abundance (log10): 0

TTCACTACATGGACCGGTTTTCCCGGTAATCCGTATTTGAG (site TTCACTACTCT)
recombinant UMI read abundance (log10): 0.00204

TTCACTCCATGGACCGGTTTTCCCGGTAATCCGTATTTGAG (site TTCACTCCTCT)
recombinant UMI read abundance (log10): 0

TTCATTGCATGGACCGGTTTTCCCGGTAATCCGTATTTGAA (site TTCATTGCTTT)
recombinant UMI read abundance (log10): 0

TTCCACCCATGGACCGGTTTTCCCGGTAATCCGTATTTGAC (site TTCCACCCTGT)
recombinant UMI read abundance (log10): 0

TTCCCTTCATGGACCGGTTTTCCCGGTAATCCGTATTTGCA (site TTCCCTTCTTG)
recombinant UMI read abundance (log10): 0

TTCCGCTCATGGACCGGTTTTCCCGGTAATCCGTATTTGTG (site TTCCGCTCTCA)
recombinant UMI read abundance (log10): 0

TTCCTTTCATGGACCGGTTTTCCCGGTAATCCGTATTTGAT (site TTCCTTTCTAT)
recombinant UMI read abundance (log10): 0

TTCGACCCATGGACCGGTTTTCCCGGTAATCCGTATTTGGC (site TTCGACCCTGC)
recombinant UMI read abundance (log10): 0

TTCGACTCATGGACCGGTTTTCCCGGTAATCCGTATTTGAC (site TTCGACTCTGT)
recombinant UMI read abundance (log10): 1.03

TTCGACTCATGGACCGGTTTTCCCGGTAATCCGTATTTGTT (site TTCGACTCTAA)
recombinant UMI read abundance (log10): 1.01

TTCGCGCCATGGACCGGTTTTCCCGGTAATCCGTATTTGTA (site TTCGCGCCTTA)
recombinant UMI read abundance (log10): 0.00689

TTCGCTGCATGGACCGGTTTTCCCGGTAATCCGTATTTGGG (site TTCGCTGCTCC)
recombinant UMI read abundance (log10): 0.00922

TTCGGTGCATGGACCGGTTTTCCCGGTAATCCGTATTTGCC (site TTCGGTGCTGG)
recombinant UMI read abundance (log10): 0

TTCGGTTCATGGACCGGTTTTCCCGGTAATCCGTATTTGAC (site TTCGGTTCTGT)
recombinant UMI read abundance (log10): 0

TTCGGTTCATGGACCGGTTTTCCCGGTAATCCGTATTTGGA (site TTCGGTTCTTC)
recombinant UMI read abundance (log10): 0

TTCTAAACATGGACCGGTTTTCCCGGTAATCCGTATTTGCA (site TTCTAAACTTG)
recombinant UMI read abundance (log10): 2.65

TTCTATTCATGGACCGGTTTTCCCGGTAATCCGTATTTGCT (site TTCTATTCTAG)
recombinant UMI read abundance (log10): 0

TTCTCAGCATGGACCGGTTTTCCCGGTAATCCGTATTTGAG (site TTCTCAGCTCT)
recombinant UMI read abundance (log10): 0.00607

TTCTCTCCATGGACCGGTTTTCCCGGTAATCCGTATTTGAA (site TTCTCTCCTTT)
recombinant UMI read abundance (log10): 0.019

TTCTTGACATGGACCGGTTTTCCCGGTAATCCGTATTTGTG (site TTCTTGACTCA)
recombinant UMI read abundance (log10): 0.0069

TTGAATCCATGGACCGGTTTTCCCGGTAATCCGTATTTGGA (site TTGAATCCTTC)
recombinant UMI read abundance (log10): 0.123

TTGACCCCATGGACCGGTTTTCCCGGTAATCCGTATTTGAT (site TTGACCCCTAT)
recombinant UMI read abundance (log10): 0.347

TTGACGTCATGGACCGGTTTTCCCGGTAATCCGTATTTGTT (site TTGACGTCTAA)
recombinant UMI read abundance (log10): 0.101

TTGAGAACATGGACCGGTTTTCCCGGTAATCCGTATTTGAC (site TTGAGAACTGT)
recombinant UMI read abundance (log10): 0.447

TTGAGAACATGGACCGGTTTTCCCGGTAATCCGTATTTGCC (site TTGAGAACTGG)
recombinant UMI read abundance (log10): 1.36

TTGATCTCATGGACCGGTTTTCCCGGTAATCCGTATTTGCG (site TTGATCTCTCG)
recombinant UMI read abundance (log10): 1.95

TTGCAGCCATGGACCGGTTTTCCCGGTAATCCGTATTTGCT (site TTGCAGCCTAG)
recombinant UMI read abundance (log10): 0.0502

TTGCATGCATGGACCGGTTTTCCCGGTAATCCGTATTTGCA (site TTGCATGCTTG)
recombinant UMI read abundance (log10): 0

TTGCCGGCATGGACCGGTTTTCCCGGTAATCCGTATTTGGC (site TAGCCGGCTGC)
recombinant UMI read abundance (log10): 0.00655

TTGCCGGCATGGACCGGTTTTCCCGGTAATCCGTATTTGGC (site TCGCCGGCTGC)
recombinant UMI read abundance (log10): 0

TTGCCGGCATGGACCGGTTTTCCCGGTAATCCGTATTTGGC (site TGGCCGGCTGC)
recombinant UMI read abundance (log10): 0

TTGCCGGCATGGACCGGTTTTCCCGGTAATCCGTATTTGGC (site TTGCCGGCTGC)
recombinant UMI read abundance (log10): 0

TTGCCGTCATGGACCGGTTTTCCCGGTAATCCGTATTTGGC (site TTGCCGTCTGC)
recombinant UMI read abundance (log10): 0

TTGCTAGCATGGACCGGTTTTCCCGGTAATCCGTATTTGAA (site TAGCTAGCTTT)
recombinant UMI read abundance (log10): 0.016

TTGCTAGCATGGACCGGTTTTCCCGGTAATCCGTATTTGAA (site TCGCTAGCTTT)
recombinant UMI read abundance (log10): 0.0147

TTGCTAGCATGGACCGGTTTTCCCGGTAATCCGTATTTGAA (site TGGCTAGCTTT)
recombinant UMI read abundance (log10): 0.0255

TTGCTAGCATGGACCGGTTTTCCCGGTAATCCGTATTTGAA (site TTGCTAGCTTT)
recombinant UMI read abundance (log10): 0.252
